# Laboratory results reported in US20070142386A1, “New 2-substituted, 4-amino-thiazolo[4,5-d] pyrimidines, useful as chemokine receptor antagonists, esp. cx3cr1” (AstraZeneca, priority 2003, published 2007).
# System: not listed separately
# Assay: Solubility assay (0.1M phosphate buffer, pH 7.4, 24 hours)
# Format: physicochemical
# Settings: 100 μM from DMSO stock in 0.1M phosphate buffer, pH 7.4, room temperature, upper limit 100 μM, LOQ 0.1 μM
# Procedure: 100 μM Solutions in duplicate, prepared by dilution from a 10 mM DMSO stock solution of the test compound, were incubated in 0.1M phosphate buffer, pH 7.4, in a 96-well plate (PP plate, 350 μl U-shaped wells, COSTAR) on a plate bed shaker (IKA®-Schuttler MTS-4, IKA Labortechnik) at 300 rpm and room temperature (20-22° C.) for 24 hours.
# The solutions were transferred to a MultiScreen™-R4 96-well filtration plate (LCR membrane, 0.4 μm hydrophilic PTFE, non-sterile glass-filled PP plate, 350 μl wells, Millipore) and filtered under vacuum to a 96-well collection plate (PP plate, 350 μl U-shaped wells, COSTAR), called the analyte plate, using Millipore Vacuum Manifold equipment. The analyte plate was covered by heat-sealing with an aluminium foil coated with a PP seal layer (AB-0813, pierceable sealing foil strong, ABgene).
# LC-UV-MS analysis was performed using a generic LC method.
# Single point quantification was performed against two 100 μM standards of the test compound dissolved in DMSO at the wavelength showing maximum UV absorbance as extracted from the DAD-trace (210-400 nm). The upper limit of the screen method is 100 μM with a LOQ of 0.1 μM.
row,Structure (SMILES),solubility at 24 h
1,"CC(C)C[C@H](CO)N(C)c1nc([S+]([O-])CCc2ccccc2Br)nc2nc(N)sc12 (mixture of isomers) [Example 13, (R)-2-[(2-Amino-5-{[2-(2-bromophenyl)ethyl]-(RS,SS)-sulfinyl}[1,3]thiazolo[4,5-d]pyrimidin-7-yl)(methyl)amino]-4-methylpentan-1-ol]",33.8 µM

# Same assay, conditions: 21 °C, aqueous buffer, kinetic from dmso stock, 100 μM from DMSO stock in 0.1M phosphate buffer, pH 7.4, room temperature, upper limit 100 μM, LOQ 0.1 μM
row,solubility at 24 h,Structure (SMILES)
1,> 100 µM,"CC(C)C(CO)Nc1nc([S+]([O-])Cc2ccccc2)nc2[nH]c(=O)sc12 [Example 49, 5-[Benzyl-(RSSS)-sulfinyl]-7-{[(1R)-1-(hydroxymethyl)-2-methylpropyl]amino}[1,3]thiazolo[4,5-d]pyrimidin-2(3H)-one]"
2,1.3 µM,"CC(C)C[C@H](CO)Nc1nc(SCc2ccccc2)nc2[nH]c(=O)sc12 [drawing 18 X = S, 5-(Benzylthio)-7-{[(1R)-1-(hydroxymethyl)-3-methylbutyl]amino}[1,3]thiazolo[4,5-d]pyrimidin-2(3H)-one, reference compound]"
3,2.1 µM,"CC(C)C[C@H](CO)Nc1nc(SCc2cccc(F)c2F)nc2[nH]c(=O)sc12 [drawing 20 X = S, 5-[(2,3-Difluorobenzyl)thio]-7-{[(1R)-1-(hydroxymethyl)-3-methylbutyl]amino}[1,3]thiazolo[4,5-d]pyrimidin-2(3H)-one, reference compound]"
4,8.5 µM,"CC(C)[C@H](CO)Nc1nc(SCc2ccccc2)nc2[nH]c(=O)sc12 [drawing 21 X = S, 5-(Benzylthio)-7-{[(1R)-1-(hydroxymethyl)-2-methylpropyl]amino}[1,3]thiazolo[4,5-d]pyrimidin-2(3H)-one, reference compound]"

# Further lines, the compound ahead of its results:
row,Structure (SMILES),solubility at 24 h
1,"CC(C)C[C@H](CO)Nc1nc([S+]([O-])Cc2cccc(F)c2F)nc2[nH]c(=O)sc12 (mixture of isomers) [Example 45, 5-[(2,3-Difluorobenzyl)-(RS,SS)-sulfinyl]-7-{[(1R)-1-(hydroxymethyl)-3-methylbutyl]amino}[1,3]thiazolo[4,5-d]pyrimidin-2(3H)-one]",> 100 µM
2,"COc1cccc(COc2nc(N[C@@H](CO)CC(C)C)c3sc(N)nc3n2)c1 [Example 2, (2R)-2-({2-Amino-5-[(3-methoxybenzyl)oxy][1,3]thiazolo[4,5-d]pyrimidin-7-yl}amino)-4-methylpentan-1-ol]",72.9 µM
3,"CC(C)C[C@H](CO)Nc1nc(OCCc2ccccc2)nc2nc(N)sc12 [Example 3, (2R)-2-{[2-Amino-5-(2-phenylethoxy)[1,3]thiazolo[4,5-d]pyrimidin-7-yl]amino}-4-methylpentan-1-ol]",63.6 µM
4,"CC(C)CC(CO)Nc1nc([S+]([O-])Cc2cccc(F)c2F)nc2[nH]c(=O)cnc12 [Example 24, 2-[(2,3-Difluorobenzyl)-(RS,SS)-sulfinyl]-4-(1R)-1-(hydroxymethyl)-3-methylbutyl]amino}pteridin-7(8H)-one]",44 µM
5,"CC(C)C[C@H](CO)Nc1nc(OCc2ccccc2)[nH]c2nc(=O)sc1-2 [Example 25, 5-(Benzyloxy)-7-{[(1R)-1-(hydroxymethyl)-3-methylbutyl]amino}[1,3]thiazolo[4,5-d]pyrimidin-2(3H)-one]",29 µM
6,"COc1cccc(COc2nc(N[C@@H](CO)CC(C)C)c3sc(=O)[nH]c3n2)c1 [Example 26, 7-{[(1R)-1-(Hydroxymethyl)-3-methylbutyl]amino}-5-[(3-methoxybenzyl)oxy][1,3]thiazolo[4,5-d]pyrimidin-2(3H)-one]",78.5 µM
7,"CC(C)C[C@H](CO)Nc1nc(SCc2cccc(F)c2F)nc2[nH]c(=O)cnc12 [drawing 17 X = S, 2-[(2,3-Difluorobenzyl)thio]-4-{[(1R)-1-(hydroxymethyl)-3-methylbutyl]amino}pteridin-7(8H)-one, reference compound]",1.3 µM

# Target: T1, human fractalkine receptor (hCX3CR1) (Homo sapiens, UniProt P49238)
# T1 construct: expressed in transfected cells; host or cells: HEKS 293 (human embryonic kidney suspension) cells stably expressing the chimeric G-protein Gαqi5; Membranes were used in the assay
# T1 sequence (P49238 1-355): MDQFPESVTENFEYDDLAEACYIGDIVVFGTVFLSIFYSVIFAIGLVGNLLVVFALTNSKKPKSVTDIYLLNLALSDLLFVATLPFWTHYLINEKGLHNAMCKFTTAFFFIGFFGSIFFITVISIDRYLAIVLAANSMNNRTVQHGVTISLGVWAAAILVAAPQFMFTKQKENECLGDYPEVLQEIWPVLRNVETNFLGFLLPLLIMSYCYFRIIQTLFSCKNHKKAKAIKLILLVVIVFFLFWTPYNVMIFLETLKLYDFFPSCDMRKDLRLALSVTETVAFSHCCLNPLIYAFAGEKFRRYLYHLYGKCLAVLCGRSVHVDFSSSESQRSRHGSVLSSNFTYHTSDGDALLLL
# Assay: Ligand binding assay (competition binding with [125I]-fractalkine on cell membranes)
# Settings: not given
row,Structure (SMILES),Ki
1,"CC(C)C[C@H](CO)Nc1nc(OCc2ccccc2)[nH]c2nc(=O)sc1-2 [Example 25, 5-(Benzyloxy)-7-{[(1R)-1-(hydroxymethyl)-3-methylbutyl]amino}[1,3]thiazolo[4,5-d]pyrimidin-2(3H)-one]",44.6 nM

# Same assay, conditions: 10 pM [125I]-fractalkine, membranes of HEKS 293 cells expressing hCX3CR1, 25° C., 24 h; read-out: Ki
row,Ki,Structure (SMILES)
1,38 nM,"CC(C)C[C@H](CO)Nc1nc([S+]([O-])Cc2cccc(F)c2F)nc2[nH]c(=O)sc12 (mixture of isomers) [Example 45, 5-[(2,3-Difluorobenzyl)-(RS,SS)-sulfinyl]-7-{[(1R)-1-(hydroxymethyl)-3-methylbutyl]amino}[1,3]thiazolo[4,5-d]pyrimidin-2(3H)-one]"
